Assay results published in patent publication US20240025893A1, “PYRIMIDINE-AND NITROGEN-CONTAINING BICYCLIC COMPOUND” (Asahi Kasei Pharma Corporation, priority 2020, published 2024).

Key:
[1] = tested on: LPS-stimulated TNFα production in THP-1 cells; experiment: LPS-stimulated TNFα production inhibition test using human acute monocytic leukemia cell strain THP-1; format: cell-based; conditions: Homo sapiens, THP-1, 4 h, LPS 2.5 ng/mL, average values
In short: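 Readout was HTRF-measured TNFα in supernatants, calibrated against a standard curve, after LPS challenge (2.5 ng/mL final, 4 h) of THP-1 cells pretreated 1 h at 37 °C with compound. Unstimulated wells defined 100% suppression and vehicle wells 0%. IC50 was fitted with a 4-parameter logistic model.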

human IRAK-4 = human IRAK-4 (Homo sapiens (Human), UniProt Q9NWZ3); experiment: Measurement of human IRAK-4 inhibitory activity (TR-FRET, peptide substrate phosphorylation, 10 μM ATP); format: biochemical; conditions: 1 nM IRAK-4, 10 μM ATP, 23° C., 30 minutes; average values
In short: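 With 1 nM IRAK-4, 0.5 μM biotinylated peptide and 10 μM ATP, compound incubated 30 min at 23 °C in 50 mM HEPES pH 7.2 with Mg2+/Mn2+. Stopped with EDTA plus europium-cryptate anti-phosphopeptide antibody and streptavidin-XL665, 60 min at 23 °C. Activity taken as the 665/620 nm TR-FRET ratio.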

human IRAK-4, sequence (Q9NWZ3 whole entry): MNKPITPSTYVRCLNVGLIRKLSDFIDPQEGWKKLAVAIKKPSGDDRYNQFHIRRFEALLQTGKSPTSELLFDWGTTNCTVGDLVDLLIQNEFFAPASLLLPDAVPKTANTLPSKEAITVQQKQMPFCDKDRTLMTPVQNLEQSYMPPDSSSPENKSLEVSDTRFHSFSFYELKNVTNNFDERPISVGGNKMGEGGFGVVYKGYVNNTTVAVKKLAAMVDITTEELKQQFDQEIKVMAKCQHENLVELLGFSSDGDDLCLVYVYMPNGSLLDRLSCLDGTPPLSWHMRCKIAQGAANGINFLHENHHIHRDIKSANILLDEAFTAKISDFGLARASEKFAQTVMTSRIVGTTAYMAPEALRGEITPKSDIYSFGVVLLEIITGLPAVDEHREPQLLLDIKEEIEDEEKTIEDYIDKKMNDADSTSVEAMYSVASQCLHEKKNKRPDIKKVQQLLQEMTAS

Q: Which results are given for `O=C(Nc1nc2ccc(-c3cnc(CO[C@H]4CCC[C@@H]4O)nc3)cc2s1)C1CC(NCc2ccsn2)C1` (stereo partly shown) [b-02-87]?
A: IC50 [1]: 182 nM; IC50 (human IRAK-4): 0.95 nM

Q: What does the source list for `O=C(Nc1nc2ccc(-c3cnc(CO[C@H]4CCC[C@@H]4O)nc3)cc2s1)C1CC(N2CC[C@H](OC(F)F)C2)C1` (stereo partly shown) [b-02-51]?
A: IC50 [1]: 146 nM; IC50 (human IRAK-4): 2.17 nM

Q: For `Cc1cc(C(=O)N2CCN([C@H]3C[C@@H](C(=O)Nc4cc5cc(-c6cnc(CO[C@H]7CCC[C@@H]7O)nc6)ccn5n4)C3)[C@@H](C)C2)cc(C)n1` [e-02-27], which IC50 [1] is on record?
A: 54 nM

Q: What about the IC50 (human IRAK-4) of the same compound?
A: 1.38 nM

Q: Which IC50 [1] does the source give for `C[C@H]1CN(C(=O)c2cccnc2)CCN1[C@H]1C[C@@H](C(=O)Nc2nc3ccc(-c4cnc(CO[C@H]5CCC[C@@H]5O)nc4)cc3s2)C1` [b-04-12] here?
A: 39 nM

Q: And the IC50 (human IRAK-4)?
A: 1.93 nM

Q: What does the source list for `C[C@H]1CN(C(=O)C2CCC2)CCN1[C@H]1C[C@@H](C(=O)Nc2cc3cc(-c4cnc(CO[C@H]5CCC[C@@H]5O)nc4)ccn3n2)C1` [e-02-06]?
A: IC50 [1]: 113 nM; IC50 (human IRAK-4): 1.3 nM

Q: For `O=C(Nc1nc2ccc(-c3cnc(CO[C@H]4CCC[C@@H]4O)nc3)cc2s1)C1CC(NC2CCCC2)C1` (stereo partly shown) [b-02-50], which IC50 [1] is on record?
A: 144 nM

Q: What about the IC50 (human IRAK-4) of the same compound?
A: 1.93 nM

Q: How did the IC50 [1] turn out when `CC(C)C(=O)N1CCN([C@H]2C[C@@H](C(=O)Nc3nc4ccc(-c5cnc(CO[C@H]6CCC[C@@H]6O)nc5)cc4s3)C2)[C@@H](C)C1` [b-05-06] was run?
A: 46 nM

Q: What about the IC50 (human IRAK-4) of the same compound?
A: 2.25 nM

Q: With `O=C(Nc1nc2ccc(-c3cnc(CO[C@H]4CCC[C@@H]4O)nc3)cc2s1)C1CC(N2CC[C@@H](OC(F)F)C2)C1` (stereo partly shown) [b-02-62] as the compound, how does the IC50 [1] read?
A: 141 nM

Q: And the IC50 (human IRAK-4)?
A: 1.38 nM

Q: For `CCCOCc1ncc(-c2ccc3nc(NC(=O)[C@H]4C[C@@H](N5CCN(C(=O)c6cc(C)ccn6)C[C@@H]5C)C4)sc3c2)cn1` [b-04-42], which IC50 [1] is on record?
A: 64 nM

Q: And the IC50 (human IRAK-4)?
A: 0.49 nM

Q: With `C[C@@H]1C[C@H]1C(=O)Nc1cc2cc(-c3cnc(CO[C@H]4CCC[C@@H]4O)nc3)ccn2n1` [e-01-03] as the compound, how does the IC50 [1] read?
A: 171 nM

Q: And the IC50 (human IRAK-4)?
A: 1.03 nM

Q: With `CCCOCc1ncc(-c2ccn3nc(NC(=O)[C@H]4C[C@@H](N5CCN(C(=O)C6CCOCC6)C[C@@H]5CC)C4)cc3c2)cn1` [e-02-19] as the compound, how does the IC50 [1] read?
A: 191 nM

Q: And the IC50 (human IRAK-4)?
A: 1.19 nM

Q: For `C[C@H]1CN(C(=O)C2CCOCC2)CCN1[C@H]1C[C@@H](C(=O)Nc2nc3ccc(-c4cnc(CO[C@H]5CCC[C@@H]5O)nc4)cc3s2)C1` [b-04-09], which IC50 [1] is on record?
A: 55 nM

Q: And the IC50 (human IRAK-4)?
A: 2.58 nM

Q: What does the source list for `COCCOCC(=O)N1CCN([C@H]2C[C@@H](C(=O)Nc3nc4ccc(-c5cnc(CO[C@H]6CCC[C@@H]6O)nc5)c(OC)c4s3)C2)[C@@H](C)C1` [c-03-04]?
A: IC50 [1]: 320 nM; IC50 (human IRAK-4): 2.69 nM

Q: Which results are given for `CC(C)C(=O)N1CCC2(CC1)CC(C(=O)Nc1nc3ccc(-c4cnc(CO[C@H]5CCC[C@@H]5O)nc4)cc3s1)C2` [d-03-05]?
A: IC50 [1]: 93 nM; IC50 (human IRAK-4): 2.52 nM

Q: With `CC[C@H]1CN(C(=O)c2ccccn2)CCN1C1CC(C(=O)Nc2nc3ccc(-c4cnc(CO[C@H]5CCC[C@@H]5O)nc4)cc3s2)C1` (stereo partly shown) [b-04-16] as the compound, how does the IC50 [1] read?
A: 23 nM

Q: What about the IC50 (human IRAK-4) of the same compound?
A: 1.51 nM

Q: `C[C@H]1CN(C(=O)C2CC2)CCN1[C@H]1C[C@@H](C(=O)Nc2cc3cc(-c4cnc(CO[C@H]5CCC[C@@H]5O)nc4)ccn3n2)C1` [e-02-10] was tested. Which IC50 [1] did it give?
A: 131 nM

Q: And the IC50 (human IRAK-4)?
A: 1.09 nM

Q: What does the source list for `CC[C@@H]1COCCN1C1CC(C(=O)Nc2nc3ccc(-c4cnc(CO[C@H]5CCC[C@@H]5O)nc4)cc3s2)C1` (stereo partly shown) [b-02-21]?
A: IC50 [1]: 66 nM; IC50 (human IRAK-4): 2.12 nM

Q: `O=C(Nc1nc2ccc(-c3cnc(CO[C@H]4CCC[C@@H]4O)nc3)cc2s1)C1CC(N2CCO[C@@H]3CCC[C@@H]32)C1` (stereo partly shown) [b-02-69] was tested. Which IC50 [1] did it give?
A: 80 nM

Q: And the IC50 (human IRAK-4)?
A: 1.81 nM

Q: Which IC50 [1] does the source give for `CN(c1cnn(C)c1)C1CC(C(=O)Nc2nc3ccc(-c4cnc(CO[C@H]5CCC[C@@H]5O)nc4)cc3s2)C1` (stereo partly shown) [b-03-09] here?
A: 143 nM

Q: And the IC50 (human IRAK-4)?
A: 2.21 nM

Q: `C[C@H]1CN(C(=O)c2ccc(C(F)(F)F)cn2)CCN1[C@H]1C[C@@H](C(=O)Nc2nc3ccc(-c4cnc(CO[C@H]5CCC[C@@H]5O)nc4)cc3s2)C1` [b-04-14] was tested. Which IC50 [1] did it give?
A: 25 nM

Q: What about the IC50 (human IRAK-4) of the same compound?
A: 1.5 nM

Q: Which results are given for `COc1c(-c2cnc(CO[C@H]3CCC[C@@H]3O)nc2)ccc2nc(NC(=O)C3CC34CC4)sc12` (stereo partly shown) [c-02-06]?
A: IC50 [1]: 194 nM; IC50 (human IRAK-4): 2.13 nM

Q: Which IC50 [1] does the source give for `CCCOCc1ncc(-c2ccn3nc(NC(=O)[C@H]4C[C@@H](N5CCN(C(=O)C6CCOC6)C[C@@H]5CC)C4)cc3c2)cn1` (stereo partly shown) [e-02-15] here?
A: 167 nM

Q: What about the IC50 (human IRAK-4) of the same compound?
A: 1.81 nM

Q: Which IC50 [1] does the source give for `O=C(Nc1nc2ccc(-c3cnc(CO[C@H]4CCC[C@@H]4O)nc3)cc2s1)C1CC(N2CCOC(C3CC3)C2)C1` (stereo partly shown) [b-02-30] here?
A: 137 nM

Q: And the IC50 (human IRAK-4)?
A: 4.12 nM

Q: `O=C(Nc1nc2ccc(-c3cnc(CO[C@H]4CCC[C@@H]4O)nc3)cc2s1)C1CC(NC23CC(C(F)(F)F)(C2)C3)C1` (stereo partly shown) [b-02-60] was tested. Which IC50 [1] did it give?
A: 158 nM

Q: What about the IC50 (human IRAK-4) of the same compound?
A: 4.27 nM

Q: Which IC50 [1] does the source give for `COc1c(-c2cnc(CO[C@H]3CCC[C@@H]3O)nc2)ccc2nc(NC(=O)[C@H]3C[C@H]3F)sc12` [c-02-04] here?
A: 261 nM

Q: What about the IC50 (human IRAK-4) of the same compound?
A: 3.35 nM

Q: Which results are given for `O=C(Nc1nc2ccc(-c3cnc(CO[C@H]4CCC[C@@H]4O)nc3)cc2s1)C1CC(N2CC(F)(F)C2)C1` (stereo partly shown) [b-02-12]?
A: IC50 [1]: 170 nM; IC50 (human IRAK-4): 3.37 nM

Q: For `COc1ccc(C(=O)N2CCN([C@H]3C[C@@H](C(=O)Nc4nc5ccc(-c6cnc(CO[C@H]7CCC[C@@H]7O)nc6)cc5s4)C3)[C@@H](C)C2)cn1` [b-04-45], which IC50 [1] is on record?
A: 15 nM

Q: What about the IC50 (human IRAK-4) of the same compound?
A: 0.66 nM

Q: Which results are given for `O=C(Nc1nc2ccc(-c3cnc(CO[C@H]4CCC[C@@H]4O)nc3)cc2s1)C1CC(N2CC[C@H](O)C2)C1` (stereo partly shown) [b-02-40]?
A: IC50 [1]: 139 nM; IC50 (human IRAK-4): 1.62 nM

Q: How did the IC50 [1] turn out when `CCOCC(=O)N1CCN([C@H]2C[C@@H](C(=O)Nc3nc4ccc(-c5cnc(CO[C@H]6CCC[C@@H]6O)nc5)cc4s3)C2)[C@@H](C)C1` [b-04-08] was run?
A: 53 nM

Q: And the IC50 (human IRAK-4)?
A: 2.48 nM

Q: Which IC50 [1] does the source give for `C[C@H]1CN(C(=O)Nc2ccccc2)CCN1[C@H]1C[C@@H](C(=O)Nc2nc3ccc(-c4cnc(CO[C@H]5CCC[C@@H]5O)nc4)cc3s2)C1` [b-06-02] here?
A: 46 nM

Q: What about the IC50 (human IRAK-4) of the same compound?
A: 4.19 nM

Q: Which IC50 [1] does the source give for `O=C(Nc1nc2ccc(-c3cnc(CO[C@H]4CCC[C@@H]4O)nc3)cc2s1)C1CC(N2CCC(F)(F)CC2)C1` (stereo partly shown) [b-02-04] here?
A: 146 nM

Q: And the IC50 (human IRAK-4)?
A: 3.64 nM

Q: For `C[C@H]1CN(C(=O)c2ccc(Cl)cn2)CCN1[C@H]1C[C@@H](C(=O)Nc2cc3cc(-c4cnc(CO[C@H]5CCC[C@@H]5O)nc4)ccn3n2)C1` [e-02-25], which IC50 [1] is on record?
A: 53 nM

Q: What about the IC50 (human IRAK-4) of the same compound?
A: 1.58 nM

Q: `CC1CC(F)(F)CN1C1CC(C(=O)Nc2nc3ccc(-c4cnc(CO[C@H]5CCC[C@@H]5O)nc4)cc3s2)C1` (stereo partly shown) [b-02-46] was tested. Which IC50 [1] did it give?
A: 171 nM

Q: What about the IC50 (human IRAK-4) of the same compound?
A: 3.55 nM

Q: Which results are given for `Cc1nc(C(=O)N2CCN([C@H]3C[C@@H](C(=O)Nc4cc5cc(-c6cnc(CO[C@H]7CCC[C@@H]7O)nc6)ccn5n4)C3)[C@@H](C)C2)co1` [e-02-24]?
A: IC50 [1]: 117 nM; IC50 (human IRAK-4): 1.27 nM

Q: `O=C(Nc1nc2ccc(-c3cnc(CO[C@H]4CCC[C@@H]4O)nc3)cc2s1)C1CC(N2CCOC[C@@H]2C(F)(F)F)C1` (stereo partly shown) [b-02-54] was tested. Which IC50 [1] did it give?
A: 135 nM

Q: What about the IC50 (human IRAK-4) of the same compound?
A: 3.46 nM

Q: What does the source list for `O=C(Nc1nc2ccc(-c3cnc(CO[C@H]4CCC[C@@H]4O)nc3)cc2s1)C1CC(NC2C3CC2C3)C1` (stereo partly shown) [b-02-76]?
A: IC50 [1]: 99 nM; IC50 (human IRAK-4): 1.55 nM

Q: `CN(CC(F)F)C1CC(C(=O)Nc2nc3ccc(-c4cnc(CO[C@H]5CCC[C@@H]5O)nc4)cc3s2)C1` (stereo partly shown) [b-02-53] was tested. Which IC50 [1] did it give?
A: 172 nM

Q: And the IC50 (human IRAK-4)?
A: 2.59 nM

Q: Which results are given for `COCC(=O)N1CCN([C@H]2C[C@@H](C(=O)Nc3nc4ccc(-c5cnc(CO[C@H]6CCC[C@@H]6O)nc5)c(OC)c4s3)C2)[C@@H](C)C1` [c-03-03]?
A: IC50 [1]: 230 nM; IC50 (human IRAK-4): 2.54 nM

Q: `O=C(Nc1nc2ccc(-c3cnc(CO[C@H]4CCC[C@@H]4O)nc3)cc2s1)C1CC(N2CCCC(F)(F)C2)C1` (stereo partly shown) [b-02-10] was tested. Which IC50 [1] did it give?
A: 141 nM

Q: And the IC50 (human IRAK-4)?
A: 3.94 nM

Q: With `C[C@H]1CN(C(=O)c2cnccn2)CCN1[C@H]1C[C@@H](C(=O)Nc2nc3ccc(-c4cnc(CO[C@H]5CCC[C@@H]5O)nc4)cc3s2)C1` [b-04-34] as the compound, how does the IC50 [1] read?
A: 66 nM

Q: And the IC50 (human IRAK-4)?
A: 1.65 nM

Q: Which IC50 [1] does the source give for `CN1CCN(C2CC(C(=O)Nc3nc4ccc(-c5cnc(CO[C@H]6CCC[C@@H]6O)nc5)cc4s3)C2)CC1` (stereo partly shown) [b-02-22] here?
A: 208 nM

Q: And the IC50 (human IRAK-4)?
A: 1.89 nM
